Measured values reported in patent US4708871A, “Antigenically active amino acid sequences” (priority 1983, dated 1987).
Entries after “also recorded” stand apart in the source; their conditions may differ. No end group written: not given here.

Key:
Assay type in all cases: binding, rabbit
[1] = tested on: anti-VP1, type O1 antiserum
[2] = tested on: anti-virus-subunit, type O1 antiserum
[3] = tested on: anti-intact virus particle, type O1 antisera
[4] = tested on: anti-intact virus particle, type C1 antiserum

Substance | Activity with another anti-VP1 serum (ELISA) [1] | Reactive antibody in anti-VP1 sera (ELISA) [1] | Reactive antibody in anti-subunit sera (ELISA) [2] | Change of activity, absorbed compared to non-absorbed serum [3] | Reactive antibody in anti-intact virus serum after absorption with purified virus (ELISA) [3] | Reactive antibody in whole anti-intact virus sera (ELISA) [3] | Reaction with antiserum to type C1 (ELISA) [4]
DLQVLA [compound 147] | showed nothing | only weakly present | not observed | loss of activity | absent | present; also recorded: reacted | did not react at all
GDLQVL [GDLQVL] | showed nothing | only weakly present | not observed | loss of activity | absent | present; also recorded: reacted | did not react at all
